This is an account of results in patent publication US8207208B2, “Angiotensin II receptor antagonists” (Merck Sharp & Dohme Corp., priority 2008, dated 2012).

Test [1] concerns reactive nitrogen species (RNS), detected as S-nitrosothiols in rat plasma. Description: DAN assay of reactive nitrogen species in plasma after oral dosing of rats. It counts as in vivo, Sprague-Dawley rats. To be noted: fasted SD rats, 40 mpk PO. As to the method:
Mononitrate compounds that have been orally dosed to rats result in nitrites (metabolites of nitric oxide) circulating in plasma with maximal concentrations in the 0.5-2 μM range. Similar dosing of isosorbide mononitrate compounds described in this invention results in increased circulating nitrite concentrations. Biochemical evidence for the generation of NO in vivo in response to test compound administration was obtained from studies in Sprague-Dawley rats. Administration of test compound to fasted SD rats (40 mpk, PO) results in the appearance of reactive nitrogen species (RNS), assessed using the diaminonapthalene derivitization (DAN) assay.
RNS were detected as S-nitrosothiols (RNSOs) in EDTA-treated rat plasma using an HPLC fluorescent assay based on the method of Kostka and Park (Methods Enzymol. 1999, 301, 227-235). The method is based on the detection of fluorescent 2,3-naphthotriazole (NAT) formed in the reaction between acidified 2,3-diaminonaphthalene and the nitrosonium moiety of RSNOs released by HgCl2-mediated breakdown of the S—NO bond. The reaction mixture was chromatographed by reversed phase HPLC, and the fluorescent signal of the resolved NAT peak was quantified.
Plasma (20 μL) was first diluted 1:1 in H2O (20 μL) in a black polypropylene untreated microtiter plate. DAN reagent (100 μL per well, 100 μM DAN in 0.1 N HCl, 4 mM HgCl2) was added, and the plate was immediately sealed with an opaque plate mat, vortexed, and incubated in the dark for 10 min. Plates were centrifuged (2000×g, 5 min) and chilled to 4° C. before HPLC analysis. HPLC was carried out on an Agilent 1200 system using a chilled autosampler (4° C.). Samples were chromatographed on a C8 column (Zorbax Eclipse XDB-C8, 4.6×150 mm, 5 μm) with isocratic elution using a mobile phase of 67% MeOH, 0.1% NH4OAc and a flow rate of 2 mL/min. NAT fluorescence was monitored at 450 nm using an excitation wavelength of 360 nm. Calibration curves were prepared using NaNO2 in control plasma.
RNS change for Examples 2, 3, 4, 5, 7, 10, 11 and 12 was measured at 1, 3, 6 and 24 hours, and is shown below.

For another test, the system named is vessel. Description: vessel relaxation assay.

Take `CCOc1nc2cccc(C(=O)O[C@@H](C)OC(=O)O[C@H]3CO[C@H]4[C@@H]3OC[C@H]4O[N+](=O)[O-])c2n1Cc1ccc(-c2ccccc2-c2nnn[nH]2)cc1` [Example 5, (1R)-1-[({[(3S,3aR,6R,6aS)-6-(nitrooxy)hexahydrofuro[3,2-b]furan-3-yl]oxy}carbonyl)oxy]ethyl 2-ethoxy-1-{[2′-(1H-tetrazol-5-yl)biphenyl-4-yl]methyl}-1H-benzimidazole-7-carboxylate]: the “DAN ΔRNS” value in test [1] (1 h) is 0.7 ± 0.5 µM; in test [1] (3 h) it was 2.5 ± 1.0 µM; in test [1] (6 h) it was 2.4 ± 1.2 µM; in test [1] (24 h), -0.3 ± 0.6 µM.

As to `CCCCc1nc(Cl)c(C(=O)O[C@H](C)OC(=O)O[C@H]2CO[C@H]3[C@@H]2OC[C@H]3O[N+](=O)[O-])n1Cc1ccc(-c2ccccc2-c2nnn[nH]2)cc1` [Example 2, (1S)-1-[({[(3S,3aR,6R,6aS)-6-(nitrooxy)hexahydrofuro[3,2-b]furan-3-yl]oxy}carbonyl)oxy]ethyl 2-butyl-4-chloro-1-{[2′-(1H-tetrazol-5-yl)biphenyl-4-yl]methyl}-1H-imidazole-5-carboxylate], the “DAN ΔRNS” value in test [1] (1 h) was determined as 2.3 ± 1.0 µM; in test [1] (3 h), 6.1 ± 1.1 µM; in test [1] (6 h) it was 4.5 ± 1.4 µM; in test [1] (24 h) it was 1.1 ± 0.7 µM. The EC50 – broadly, the concentration at which the effect is half-maximal – with vessel stood at 9.5 µM.

For `CCCCc1nc(Cl)c(C(=O)O[C@@H](C)C(=O)O[C@H]2CO[C@H]3[C@@H]2OC[C@H]3O[N+](=O)[O-])n1Cc1ccc(-c2ccccc2-c2nnn[nH]2)cc1` [Example 11, (1S)-1-methyl-2-{[(3S,3aR,6R,6aS)-6-(nitrooxy)hexahydrofuro[3,2-b]furan-3-yl]oxy}-2-oxoethyl 2-butyl-4-chloro-1-{[2′-(1H-tetrazol-5-yl)biphenyl-4-yl]methyl}-1H-imidazole-5-carboxylate], the “DAN ΔRNS” value in test [1] (1 h) is 1.1 ± 1.2 µM; in test [1] (3 h) it was 3.3 ± 1.5 µM; in test [1] (6 h), 1.8 ± 2.0 µM; in test [1] (24 h) it was 0.1 ± 1.8 µM.

Take `CCCCc1nc(Cl)c(C(=O)O[C@@H](C)OC(=O)O[C@H]2CO[C@H]3[C@@H]2OC[C@H]3O[N+](=O)[O-])n1Cc1ccc(-c2ccccc2-c2nnn[nH]2)cc1` [Example 3, (1R)-1-[({[(3S,3aR,6R,6aS)-6-(nitrooxy)hexahydrofuro[3,2-b]furan-3-yl]oxy}carbonyl)oxy]ethyl 2-butyl-4-chloro-1-{[2′-(1H-tetrazol-5-yl)biphenyl-4-yl]methyl}-1H-imidazole-5-carboxylate]: the “DAN ΔRNS” value amounted to 0.5 ± 0.4 µM in test [1] (1 h), 2.7 ± 0.5 µM in test [1] (3 h), 3.0 ± 0.5 µM in test [1] (6 h) and 0.1 ± 0.7 µM in test [1] (24 h). In the test on vessel, this compound registered an EC50 of 15.4 µM.

On to `CCCCc1nc(Cl)c(C(=O)O[C@H]2CO[C@H]3[C@@H]2OC[C@H]3O[N+](=O)[O-])n1Cc1ccc(-c2ccccc2-c2nnn[nH]2)cc1` [Example 7, (3S,3aR,6R,6aS)-6-(nitrooxy)hexahydrofuro[3,2-b]furan-3-yl 2-butyl-4-chloro-1-{[2′-(1H-tetrazol-5-yl)biphenyl-4-yl]methyl}-1H-imidazole-5-carboxylate], for which the “DAN ΔRNS” value in test [1] (1 h) is 5.4 ± 3.2 µM; in test [1] (3 h), 1.5 ± 1.2 µM; in test [1] (6 h) it was 0.2 ± 0.3 µM; in test [1] (24 h), -0.3 ± 0.2 µM.

Turning to `CCOc1nc2cccc(C(=O)OC(C)(C)OC(=O)O[C@H]3CO[C@H]4[C@@H]3OC[C@H]4O[N+](=O)[O-])c2n1Cc1ccc(-c2ccccc2-c2nnn[nH]2)cc1` [Example 1, 1-[({[(3S,6R)-6-(nitrooxy)hexahydrofuro[3,2-b]furan-3-yl]oxy}carbonyl)oxy]-1-methylethyl 2-ethoxy-1-{[2′-(1H-tetrazol-5-yl)biphenyl-4-yl]methyl}-1H-benzimidazole-7-carboxylate], the EC50 with vessel is 14.2 µM.

Turning to `CCOc1nc2cccc(C(=O)O[C@H](C)OC(=O)O[C@H]3CO[C@H]4[C@@H]3OC[C@H]4O[N+](=O)[O-])c2n1Cc1ccc(-c2ccccc2-c2nnn[nH]2)cc1` [Example 4, (1S)-1-[({[(3S,3aR,6R,6aS)-6-(nitrooxy)hexahydrofuro[3,2-b]furan-3-yl]oxy}carbonyl)oxy]ethyl 2-ethoxy-1-{[2′-(1H-tetrazol-5-yl)biphenyl-4-yl]methyl}-1H-benzimidazole-7-carboxylate], the “DAN ΔRNS” value in test [1] (1 h) came out at 0.9 ± 0.2 µM; in test [1] (3 h), 2.1 ± 1.4 µM; in test [1] (6 h), 4.2 ± 2.1 µM; in test [1] (24 h) it was 0.6 ± 0.3 µM. This compound gave an EC50 with vessel of 8.9 µM.

“2-{[(3S,3aR,6R,6aS)-6-(nitrooxy)hexahydrofuro[3,2-b]furan-3-yl]oxy}-2-oxoethyl 2-butyl-4-chloro-1-{[2′-(1H-tetrazol-5-yl)biphenyl-4-yl]methyl}-1H-imidazole-5-carboxylate [Example 9]” registered an EC50 with vessel of 5.1 µM.

As for `CCCCc1nc(Cl)c(C(=O)O[C@H](C)C(=O)O[C@H]2CO[C@H]3[C@@H]2OC[C@H]3O[N+](=O)[O-])n1Cc1ccc(-c2ccccc2-c2nnn[nH]2)cc1` [Example 10, (1R)-1-methyl-2-{[(3S,3aR,6R,6aS)-6-(nitrooxy)hexahydrofuro[3,2-b]furan-3-yl]oxy}-2-oxoethyl 2-butyl-4-chloro-1-{[2′-(1H-tetrazol-5-yl)biphenyl-4-yl]methyl}-1H-imidazole-5-carboxylate], the “DAN ΔRNS” value turned out to be 0.7 ± 0.3 µM in test [1] (1 h), 2.0 ± 0.4 µM in test [1] (3 h), 1.9 ± 0.7 µM in test [1] (6 h) and 0.1 ± 0.3 µM in test [1] (24 h).

As to `CCCCc1nc(Cl)c(C(=O)OCCC(=O)O[C@H]2CO[C@H]3[C@@H]2OC[C@H]3O[N+](=O)[O-])n1Cc1ccc(-c2ccccc2-c2nnn[nH]2)cc1` [Example 12, 3-{[(3S,3aR,6R,6aS)-6-(nitrooxy)hexahydrofuro[3,2-b]furan-3-yl]oxy}-3-oxopropyl 2-butyl-4-chloro-1-{[2′-(1H-tetrazol-5-yl)biphenyl-4-yl]methyl}-1H-imidazole-5-carboxylate], the “DAN ΔRNS” value was 0.5 ± 0.2 µM in test [1] (1 h), 1.5 ± 0.9 µM in test [1] (3 h), 1.3 ± 0.6 µM in test [1] (6 h) and 0.0 ± 0.2 µM in test [1] (24 h). In the test with vessel, this compound showed an EC50 of 20.6 µM.
